# Experiments:
# [1] = modified Ross-Miles Foam Test; assay type: physicochemical; details: 1% active in water, 66-67 °C, shaken ten times; time point not stated; higher is better
# Description: Sodium Lauryl sulfate is one of the most commonly used anionic surfactants. While it is a good detergent and produces large volume of foam, it is irritating and has no conditioning properties. In fact, it strips the oil from hair leaving the hair dry and fly away. Compounds of the present invention compare favorably with sodium lauryl sulfate in foam levels, and detergency, but also are non-irritating, conditioning and provide self-preserving properties. This coupled with the fact that they are derived from natural sugars, makes them the perfect single surfactant for personal care formulation. The following compounds were evaluated at 1% active in water. The higher the foam, the better.
# The foaming properties of the compositions were also evaluated by a modified “Ross-Miles Foam Test”. This compares the foaming tendencies of different products or surfactants in water at various temperatures.
# The test is carried out as follows: • 1. 500 ml. of water (the water should be representative of the system^1) was added to a 1000 ml. graduated cylinder having a cylinder diameter 65 mm. Then 18.0-ppm ortho phosphate is added to the cylinder as a buffer. The test is carried out at a temperature of 66° C. to 67° C. • 2. The concentration tested was 1% by weight solids. • 3. Then cylinder with contents is shaken vertically at the specified temperature ten times (the times shaken equals the number of cycles). After the tenth time, the initial foam height (t=0) is recorded in ml. Then the foam level at t=5 minutes and t=30 minutes is recorded. Results
# [2] = system: Pseudomonas aeruginosa; Staphylococcus aureus; Candida albicans; Aspergillus niger; assay: antimicrobial zone inhibition technique, activity summary over four test organisms; assay type: cell-based; details: 0.50% by weight in water; for Comments (antimicrobial activity in words): B = bacteria, Y = yeast, M = mold; for Score (sum of the four organism scores): lower score = greater activity
# Protocol: (§1) A study was conducted to determine the antimicrobial capability of four (4) SugaQuat (alkyl polyglucoside) variations utilizing the zone inhibition technique. The test materials were evaluated for gross antimicrobial activity against a series of four (4) test organisms: Pseudomonas aeruginosa (Gram-negative bacteria); Staphylococcus aureus (Gram-positive bacteria); Candida albicans (yeast) and Aspergillus niger (mold) utilizing the zone inhibition technique.
# (§2) • Sodium Lauryl Sulfate (0.50% by weight concentration in water). • Sodium Laureth 2 Sulfate (0.50% by weight concentration in water). • Example 3 (0.50% by weight concentration in water). • Example 4 (0.50% by weight concentration in water). • Example 8 (0.50% by weight concentration in water). • Example 9 (0.50% by weight concentration in water). • Example 7 (0.50% by weight concentration in water). Activity Summary • SCORING: • 1=Excellent; 2=Very Good; 3=Good; 4=OK (moderate); 6=Poor; 8=No Activity Control Compounds
# [3] = salon half head study of detergency (cleanliness of washed hair); assay type: in vivo; details: 5% solution; rated by the test person, scale 1 (poor) to 5 excellent
# Protocol: Detergency was also studies. The cleanliness of hair washed in the salon in half head studies was conducted. A 5% solution of the composition of the present invention was evaluated. The person having the test run was asked to evaluate the following samples for cleanliness of the hair. The scale was 1 (poor) to 5 excellent.
# [4] = salon half head study of conditioning (combability and softness) and wet comb of washed hair; assay type: in vivo; details: 5% solution; rated by the test person, scale 1 (poor) to 5 excellent
# Protocol: Conditioning was studied. The wet comb properties of hair washed in the salon in half head studies was conducted. Evaluation of the dry hair was also evaluated. A 5% solution of the composition of the present invention was evaluated. The person having the test run was asked to evaluate the following samples for combability and softness of the hair. The scale was 1 (poor) to 5 excellent.
# [5] = system: Pseudomonas aeruginosa (Gram-negative bacteria); assay: antimicrobial zone inhibition technique; assay type: cell-based; design: key: 1=Excellent; 2=Very Good; 3=Good; 4=OK (moderate); 6=Poor; 8=No Activity; details: 0.50% by weight in water; lower score = greater activity
# Protocol: as §1, §2
# [6] = system: Staphylococcus aureus (Gram-positive bacteria); assay: antimicrobial zone inhibition technique; assay type: cell-based; design: key: 1=Excellent; 2=Very Good; 3=Good; 4=OK (moderate); 6=Poor; 8=No Activity; details: 0.50% by weight in water; lower score = greater activity
# Protocol: as §1, §2
# Candida albicans (yeast) = assay: antimicrobial zone inhibition technique; assay type: cell-based; design: key: 1=Excellent; 2=Very Good; 3=Good; 4=OK (moderate); 6=Poor; 8=No Activity; details: 0.50% by weight in water; lower score = greater activity
# Protocol: as §1, §2
# Aspergillus niger (mold) = assay: antimicrobial zone inhibition technique; assay type: cell-based; design: key: 1=Excellent; 2=Very Good; 3=Good; 4=OK (moderate); 6=Poor; 8=No Activity; details: 0.50% by weight in water; lower score = greater activity
# Protocol: as §1, §2
molecule,measurement,setting,value
Sodium laureth 3-sulfate,Foam Level,[1],720 mL
Sodium Laureth 2 Sulfate,Comments (antimicrobial activity in words),[2],No activity
same,Score (sum of the four organism scores),[2],32
same,Foam Level,[1],770 mL
same,Detergency Result (cleanliness of the hair),[3],4
same,Conditioning,[4],1
same,Wet Comb,[4],1
same,Psa activity score,[5],8
same,Sa activity score,[6],8
same,Ca activity score,Candida albicans (yeast),8
same,An activity score,Aspergillus niger (mold),8
Sodium laureth 1-sulfate,Foam Level,[1],750 mL
CCCCCCCCCCCCOS(=O)(=O)[O-].[Na+] [Sodium Lauryl Sulfate],Comments (antimicrobial activity in words),[2],No activity
same,Score (sum of the four organism scores),[2],32
same,Foam Level,[1],900 mL
same,Detergency Result (cleanliness of the hair),[3],5
same,Conditioning,[4],1
same,Wet Comb,[4],1
same,Psa activity score,[5],8
same,Sa activity score,[6],8
same,Ca activity score,Candida albicans (yeast),8
same,An activity score,Aspergillus niger (mold),8
